Among the test systems are Campylobacter jejuni; Escherichia coli; Escherichia coli K-12; Candida krusei ATCC 6258; Enterococcus faecalis A4; Escherichia coli NDM; Enterococcus faecium; Escherichia coli W3110; Staphylococcus aureus MR; Staphylococcus aureus.
Common to all, as to assay: ≥ marks a high value that may be exact or a test limit, other limits are often not marked, values filed in µg/mL are converted to µM
Assay [1] concerns Campylobacter jejuni NCTC 11351.
In assay [2] the test system is Klebsiella pneumoniae ATCC 700603.
In assay [3] the test system is Pseudomonas aeruginosa ATCC 27853.
Assay [4] concerns Listeria monocytogenes NCTC 11994.
Assay [5] deals with Pseudomonas aeruginosa Q12-0535.
Assay [6] relates to Pseudomonas aeruginosa Q14-0890.
The test system of assay [7] is Acinetobacter baumannii Q12-0809.
The test system of assay [8] is Klebsiella pneumoniae NCTC 13442.
The test system of assay [9] is Staphylococcus aureus MRSA-15.
For assay [10], the system named is Enterococcus faecalis JH-2-2.
Assay [11] has as its system Pseudomonas aeruginosa PAO1.
The subject of assay [12] is Pseudomonas aeruginosa Q14-0208.
Assay [13] concerns Staphylococcus aureus NCTC 12493.
Assay [14] deals with Acinetobacter baumannii Q12-0867.
Assay [15] concerns Klebsiella pneumoniae Q14-0095.
The test system of assay [16] is Staphylococcus aureus Q14-0320.
Assay [17] deals with Staphylococcus aureus ATCC 29213.
For assay [18], the system named is Acinetobacter baumannii Q13-0717.
The test system of assay [19] is Staphylococcus aureus RN4220.
In assay [20] the test system is Salmonella typhimurium SL1344.
Assay [21] has as its system Enterobacter cloacae ATCC 13047.
Assay [22] deals with Enterococcus faecalis ATCC 4028.
Assay [23] concerns Candida glabrata ATCC 90030.
In assay [24] the test system is Candida albicans ATCC 90028.
Assay [25] has as its system Staphylococcus epidermidis ATCC 12228.
Assay [26] deals with Escherichia coli ATCC 25922.
Assay [27] relates to Klebsiella pneumoniae KCTC 2208.
In assay [28] the test system is Acinetobacter baumannii KCTC 2508.
In assay [29] the test system is Acinetobacter baumannii AB5075.
The test system of assay [30] is Bacillus subtilis ATCC 6051.
Assay [31] has as its system Bacillus licheniformis ATCC 14580.
In assay [32] the test system is Enterococcus faecalis 1F-1.
The test system of assay [33] is Enterococcus faecium 5F-10.
In assay [34] the test system is Bacillus amyloliquefaciens ATCC 23842.
The test system of assay [35] is Pseudomonas aeruginosa PA14.
Assay [36] concerns Bacillus cereus ATCC 14579.
Assay [37] relates to Staphylococcus aureus 215.

Each structure is given as a SMILES string. Values after ≈ are worked out from the molar mass of the structure shown. Bounds are passed on as bounds.

Experimental findings from DBAASP are described below.

As to `CC[C@H](C)[C@H](NC(=O)[C@H](CO)NC(=O)[C@@H](N)CCCN=C(N)N)C(=O)N[C@H](C(=O)N[C@@H](CCCN=C(N)N)C(=O)N1CCC[C@H]1C(=O)N[C@H](C(=O)N[C@@H](CC(C)C)C(=O)N[C@H](C(=O)N[C@@H](CCCN=C(N)N)C(=O)N[C@@H](CCCN=C(N)N)C(=O)N[C@@H](CCCN=C(N)N)C(=O)N[C@@H](Cc1c[nH]c2ccccc12)C(=O)N[C@@H](CCCN=C(N)N)C(=O)N[C@H](C(=O)N[C@@H](CCCN=C(N)N)C(=O)N1CCC[C@H]1C(=O)N[C@H](C(=O)N[C@@H](Cc1ccccc1)C(=O)O)C(C)C)C(C)C)C(C)C)C(C)C)[C@@H](C)O` [RSITRPVLVRRRWRVRPVF], the MIC (commonly the smallest concentration in the dilution series that meets the test's criterion for growth inhibition) was ≥ 52.2 µM in assay [1]; > 52.2 µM in assay [2]; > 52.2 µM in [3]; ≥ 209 µM in [4]; ≥ 51 µM in [5]; ≥ 52.2 µM in the assay with Campylobacter jejuni. Moreover, the MIC in [6] was ≥ 52.2 µM; in [7], 26.1 µM (≈ 64 µg/mL); in assay [8], ≥ 52.2 µM; against Escherichia coli it was > 52.2 µM; in assay [9] it was ≥ 102 µM; in assay [10], ≥ 209 µM. In addition, the MIC in [11] is 209 µM (≈ 512 µg/mL); in [12] it was ≥ 52.2 µM; in [13], ≥ 52.2 µM; against Escherichia coli K-12, ≥ 104 µM; in assay [14], ≥ 52.2 µM; in assay [15], ≥ 52.2 µM. In addition, the MIC in [16] was ≥ 52.2 µM; in assay [17], > 52.2 µM; in [18], ≥ 52.2 µM; in [19] it was ≥ 104 µM; in assay [20], 26.1 µM (≈ 64 µg/mL).

Consider `CC[C@H](C)[C@H](NC(=O)[C@H](CC(C)C)NC(=O)CNC(=O)[C@H](CCCCN)NC(=O)[C@@H](NC(=O)[C@H](CC(C)C)NC(=O)[C@H](CCCCN)NC(=O)[C@@H]1CCCN1C(=O)[C@@H](NC(=O)[C@H](CC(C)C)NC(=O)[C@H](CCCCN)NC(=O)[C@H](Cc1ccccc1)NC(=O)[C@@H](N)Cc1ccccc1)[C@@H](C)CC)C(C)C)C(=O)N[C@@H](CO)C(=O)N[C@@H](C)C(=O)N[C@@H](Cc1ccccc1)C(=O)N[C@@H](CCCCN)C(N)=O` [FFKLIPKLVKGLISAFK], for which the MIC in assay [21] was 9.38 µM (≈ 18.3 µg/mL); in [3] it was 1.17 µM (≈ 2.28 µg/mL); in [22] it was 1.17 µM (≈ 2.28 µg/mL); in [23], 9.38 µM (≈ 18.3 µg/mL); in assay [24], 4.69 µM (≈ 9.14 µg/mL); against Candida krusei ATCC 6258 it was 9.38 µM (≈ 18.3 µg/mL). Moreover, the MIC was found to be 9.38 µM (≈ 18.3 µg/mL) in [25], 2.34 µM (≈ 4.56 µg/mL) in [26] and 2.34 µM (≈ 4.56 µg/mL) in [17].

`CC[C@H](C)[C@H](N)C(=O)N[C@@H](C)C(=O)N[C@@H](CCCN=C(N)N)C(=O)N[C@@H](CCCN=C(N)N)C(=O)N[C@@H](C)C(=O)N[C@@H](CC(C)C)C(=O)N[C@@H](CCCCN)C(=O)N[C@@H](C)C(=O)N[C@@H](CO)C(=O)N[C@@H](CC(C)C)C(=O)N[C@@H](CCCN=C(N)N)C(=O)N[C@@H](C)C(=O)N[C@@H](CCCN=C(N)N)C(=O)N[C@@H](Cc1cnc[nH]1)C(=O)N[C@H](C(=O)N[C@H](C(=O)N1CCC[C@H]1C(=O)N[C@@H](CCC(N)=O)C(=O)N[C@@H](CS)C(=O)N[C@@H](CCCCN)C(=O)N[C@@H](CCCCN)C(=O)N[C@@H](Cc1ccccc1)C(=O)NCC(=O)N[C@@H](CCCN=C(N)N)C(=O)N[C@@H](CCCN=C(N)N)C(N)=O)[C@@H](C)CC)[C@@H](C)O` [IARRALKASLRARHTIPQCKKFGRR]: the MIC in assay [3] is 4 µM (≈ 11.7 µg/mL); in assay [27], 8 µM (≈ 23.5 µg/mL); in assay [28], 4 µM (≈ 11.7 µg/mL).

With `CC[C@H](C)[C@H](NC(=O)[C@H](CC(C)C)NC(=O)[C@H](CO)NC(=O)[C@@H](NC(=O)[C@H](CCC(N)=O)NC(=O)[C@H](Cc1ccc(O)cc1)NC(=O)[C@H](CCCN=C(N)N)NC(=O)[C@H](CCCN=C(N)N)NC(=O)[C@H](CCCN=C(N)N)NC(=O)[C@@H](NC(=O)[C@H](CO)NC(=O)[C@@H](NC(=O)[C@@H](N)[C@@H](C)O)[C@@H](C)O)[C@@H](C)CC)C(C)C)C(=O)N[C@@H](CCCN=C(N)N)C(=O)N[C@@H](CCCN=C(N)N)C(=O)N[C@@H](Cc1cnc[nH]1)C(=O)N[C@@H](CCCN=C(N)N)C(=O)NCC(=O)N[C@@H](CCCCN)C(=O)N[C@@H](CCCN=C(N)N)C(=O)O` [TTSIRRRYQVSLIRRHRGKR], the MIC in assay [29] is 1 µM (≈ 2.54 µg/mL); in the assay on Enterococcus faecalis A4, 3.15 µM (≈ 8 µg/mL); in assay [30], 25.2 µM (≈ 64 µg/mL); in assay [31] it was 25.2 µM (≈ 64 µg/mL); in assay [32], 3.15 µM (≈ 8 µg/mL); in assay [33], 1.57 µM (≈ 4 µg/mL). Besides, the MIC is 25.2 µM (≈ 64 µg/mL) in assay [34]; ≥ 32 µM in the assay on Escherichia coli NDM; 3.15 µM (≈ 8 µg/mL) in the assay with Enterococcus faecium; 16 µM (≈ 40.6 µg/mL) in assay [35]; 16 µM (≈ 40.6 µg/mL) against Escherichia coli W3110; 25.2 µM (≈ 64 µg/mL) in assay [17]. The minimum inhibitory concentration (MIC) in assay [36] is 25.2 µM (≈ 64 µg/mL); in the assay with Staphylococcus aureus MR, 25.2 µM (≈ 64 µg/mL); with Staphylococcus aureus, 6.3 µM (≈ 16 µg/mL); in assay [37], 12.6 µM (≈ 32 µg/mL).
